Among the data in patent US20160303133A1, “TREATMENT OF GASTROINTESTINAL AND OTHER DISORDERS” (NUMEDII, INC., priority 2013, published 2016) are colon inflammation and colon necrosis values, retold here.

Assay [1] deals with TNBS (2,4,6-trinitrobenzenesulfonic acid) rat colitis model. Kind of assay: Prophylactic efficacy study in TNBS rat colitis model, colon histopathology (Example 3). Type of assay: in vivo, Sprague-Dawley rats. The protocol: Prophylactic efficacy study in TNBS (2,4,6-trinitrobenzenesulfonic acid) rat colitis model.
Preparation of doses: For Groups 1, 2: 50 ml 0.1M acetic acid and 30 ml sterile water were combined. The pH was adjusted from 4.45 to 6.7 with 0.1N NaOH. The stir bar was removed and the solution made up to 100 ml with sterile water. For Group 3, 133.9 mg prednisolone 21-hemisuccinate sodium salt was dissolved in 100 ml de-ionized water to prepare a 1 mg/ml solution. For Group 4, 600 mg Nadolol was dissolved in 50 ml 0.1M acetic acid and 30 ml sterile water. The pH was adjusted from 4.45 to 6.7 with 0.1N NaOH, and the solution made up to 100 ml with sterile water. For Group 5, 1.2 g Nadolol was dissolved in 50 ml 0.1M acetic acid and 30 ml sterile water. The pH was adjusted from 4.45 to 6.7 with 0.1N NaOH and the solution made up to 100 ml with sterile water. For Group 6: 1 g cellulose gum was dissolved in 50 ml 0.1N acetic acid and 30 ml de-ionized water. The volume was made up to 100 ml with sterile water. For Group 7, 600 mg Nadolol was dissolved in 50 ml 0.1M acetic acid and 30 ml sterile water. 1 g cellulose gum was added and dissolved into the solution and the solution made up to 100 ml with sterile water. For Group 8, 1.2 g Nadolol was dissolved in 50 ml 0.1M acetic acid and 30 ml sterile water. 1 g cellulose gum was added and dissolved into the solution and the solution made up to 100 ml with sterile water.
(Day −1) 84 Sprague-Dawley rats (male, 160-180 g each) were sorted into treatment groups based upon average body weight. The rats were weighed and food-deprived. The rats in groups 1-5 were dosed orally (PO) at 10 ml/kg with their respective solutions according to Table 2. The rats in Groups 6-8 were anesthetized intra-rectally (IR) instilled with 10 ml/kg of their respective treatment according to Table 2, the anus was pinched closed and the rat held inverted until recovered from anesthesia (at least 1 min).
After 24 hours (day 0), an aqueous solution of TNBS (2,4,6-trinitrobenzenesulfonic acid) 16 mg/ml in 50% ethanol was made and the rats were weighed and dosed as in TABLE 2. One hour later, the rats anesthetized and Groups 2-8 were intra-rectally instilled with 4 ml/kg TNBS solution (64 mg/kg), the anus was pinched closed and the rat held inverted until recovered from anesthesia (at least 1 min). Group 1 received de-ionized water. The rats were re-fed after recovery from TNBS instillation.
The rats were weighed and dosed as in TABLE 2 each day for the next six days (day 2-7), The rats were anesthetized and exsanguinated into pre-chilled serum separator tubes, the blood processed to serum which was stored in several aliquots at −80° C. A midline incision was made in the abdomen and the colon was evaluated for adhesions and stricture. The colon was removed and the length recorded. A midline incision was made the entire length of the colon, the contents removed and the colon weight and colon wall thickness recorded. A section of the colon was preserved in 20 volumes of 10% neutral buffered formalin. The end of the colon section at the rectal end of the section was edged with Evans Blue dye for orientation purposes. Another section of the colon was weighed and homogenized on an ice batch in 5 ml PBS. The homogenate was centrifuged and aliquots stored in labeled Eppendorf tubes at −80° C. The following parameters were used to determine colonic score: • Colonic Score Parameters • a) Adhesions: • 1) none=0 • 2) minimal=1 • 3) involving several bowel loops=2 • b) Strictures: • 1) none=0 • 2) mild=1 • 3) moderate=2 • 4) severe, proximal dilatation=3 • c) Ulcers: • 1) none=0 • 2) linear ulceration <1 cm=1 • 3) two linear ulcers <1 cm=2 • 4) more sites of ulceration or one large ulcer=3 • d) Wall thickness: • 1) less than 1 mm=0 • 2) 1-3 mm=1 • 3) >3 mm=2
The formalin-preserved colon samples were submitted for histological preparation and evaluation. […]

The test system of assay [2] is prophylactic TNBS rat colitis model. Briefly: TNBS dose escalation study, colon histopathology (Example 4). Type of assay: in vivo, Sprague-Dawley (SD) rats. The arrangement: key to colon necrosis: no: 0=No necrosis; very minimal: 0.5=Very minimal, focal, affects <2% of the total colon; minimal: 1.0=Minimal focal or multifocal, affects 2-10% of the total colon; mild: 2.0=Mild, focal or multifocal, affects 11-25% of the total colon; moderate: 3.0=Moderate focal or multifocal, affects 26-50% of the total colon; marked: 4.0=Marked focal or multifocal, affects 51-75% of the total colon; severe: 5.0=Severe affects >75% of the total colon. An excerpt:
Inflammation—neutrophil and macrophage infiltration predominantly, fibroplasia and neovascularization in areas of transmural necrosis 0=No inflammation 0.5=Very minimal focal infiltrates in mucosa only, affects <2% of the total colon 1.0=Minimal multifocal infiltrates in mucosa only, affects 2-10% of the total colon 2.0=Mild multifocal infiltrates affecting mucosa, submucosa, outer muscle layers and serosa, affects 11-25% of the total colon 3.0=Moderate multifocal infiltrates affecting mucosa, submucosa, outer muscle layers and serosa, affects 26-50% of the total colon 4.0=Marked multifocal to diffuse infiltrates affecting mucosa, submucosa, outer muscle layers and serosa, affects 51-75% of the total colon 5.0=Severe multifocal to diffuse infiltrates affecting mucosa, submucosa, outer muscle layers and serosa, affects >75% of the total colon. Necrosis—measure the total length of all colon sections, measure the total length of necrotic mucosa devoid of epithelium to determine % area affected 0=No necrosis 0.5=Very minimal, focal, affects <2% of the total colon 1.0=Minimal focal or multifocal, affects 2-10% of the total colon 2.0=Mild, focal or multifocal, affects 11-25% of the total colon 3.0=Moderate focal or multifocal, affects 26-50% of the total colon 4.0=Marked focal or multifocal, affects 51-75% of the total colon 5.0=Severe, affects >75% of the total colon Sprague-Dawley (SD) rats 118 (male, 180-200 g) were assigned to 11 groups of 10 or 12 rats per group so that each group has approximately the same mean weight. (Day −1) Initiate daily dosing of Groups 1-11 as in TABLE 1. Rats are deprived of food for 24 hours prior to disease initiation. 1) Intra-rectal (IR) administration is accomplished by briefly anesthetizing the rats, administering the test material at 10 ml/kg via a 20 gauge feeding needle inserted via the rectum, maintaining the rat in an inverted position with anus pinched shut until recovered from anesthesia. 2) Oral formulations are first dissolved in 0.05N acetic acid and pH adjusted to 6-7 with 0.1N NaOH. [table] (DAY 0) Prepare TNBS Solution (50% TNBS: 50% 200 proof ethanol; 16 mg/ml TNBS). Dose as in TABLE 3. After 1 hour, rats in Groups 2-11 are administered TNBS. Anesthetize rats and administer 64 mg/kg (4 ml/kg) TNBS Solution into colon of each rat, then re-feed rats. (DAY 7): Rats are weighed and dosed as in Table 3. […]. Terminal blood samples are collected from anesthetized rats. Samples are collected in pre-chilled-tubes and processed to serum. Store serum at −80° C. in several aliquots. A midline incision is made on each animal. Colon is removed and length measured and recorded. A longitudinal incision is made on each colon. Fecal material is gently washed away with saline. Excess fluid is gently blotted and colon weighed. The severity of IBD is assessed using the following scoring system: maximum score=10 • 1) Adhesions: • none=0 • minimal=1 • involving several bowel loops=2 • 2) Strictures: • none=0 • mild=1 • moderate=2 • severe, proximal dilatation=3 • 3) Ulcers: • none=0 • inear ulceration <1 cm=1 • two linear ulcers <1 cm=2 • more sites of ulceration or one large ulcer=3 • 4) Wall thickness: • less than 1 mm=0 • 1-3 mm=1 • >3 mm=2 A section of colon is preserved in 10 volumes of 10% neutral buffered formalin for histopathology. A section of colon is homogenized in PBS, centrifuged, and aliquots of the homogenate in labeled Eppendorf tubes are stored at −80° C. for cytokine analysis.

Setting [3] is: 10 mpk, FIG. 4c, animal with approximate mean summed score for the group.
Setting [4] is: 60 mpk, FIG. 5c (route not given, IR by group order of Table 2).
Where [5] appears, read: 60 mpk, FIG. 4d (route not given, PO by group order of Table 2).
Setting [6] is: 120 mpk, FIG. 5a (route not given, PO by group order of Table 2).
[7] abbreviates: 120 mpk, FIG. 5d (route not given, IR by group order of Table 2).

Turning to `C[C@]12C=CC(=O)C=C1CC[C@@H]1[C@@H]2[C@@H](O)C[C@@]2(C)[C@H]1CC[C@]2(O)C(=O)CO` [prednisolone], the colon inflammation entry is given as “minimal (1.0=Minimal multifocal infiltrates in mucosa only, affects 2-10% of the total colon)” in assay [1] (setting [3]) and “minimal (1.0=Minimal multifocal infiltrates in mucosa only, affects 2-10% of the total colon)” in assay [2] (PO 10 mpk, FIG. 12c). For the same molecule, the colon necrosis entry in assay [1] (setting [3]) is recorded as “very minimal (0.5=Very minimal, focal, affects <2% of the total colon)”; in assay [2] (PO 10 mpk, FIG. 12c), “minimal (1.0=Minimal focal or multifocal, affects 2-10% of the total colon)”.

Take `CC(C)(C)NCC(O)COc1cccc2c1CC(O)C(O)C2` (centres unmarked) [nadolol]: the colon inflammation result in assay [1] (setting [4]) was “moderate (3.0=Moderate multifocal infiltrates affecting mucosa, submucosa, outer muscle layers and serosa, affects 26-50% of the total colon)”; in assay [1] (setting [5]), “moderate (3.0=Moderate multifocal infiltrates affecting mucosa, submucosa, outer muscle layers and serosa, affects 26-50% of the total colon)”; in assay [1] (setting [6]) it was “moderate (3.0=Moderate multifocal infiltrates affecting mucosa, submucosa, outer muscle layers and serosa, affects 26-50% of the total colon)”; in assay [1] (setting [7]) it was “mild (2.0=Mild multifocal infiltrates affecting mucosa, submucosa, outer muscle layers and serosa, affects 11-25% of the total colon)”; in assay [2] (IR 6 mpk, FIG. 12i), “mild (2.0=Mild multifocal infiltrates affecting mucosa, submucosa, outer muscle layers and serosa, affects 11-25% of the total colon)”; in assay [2] (IR 19 mpk, FIG. 12j) it was “moderate (3.0=Moderate multifocal infiltrates affecting mucosa, submucosa, outer muscle layers and serosa, affects 26-50% of the total colon)”. In addition, the colon inflammation entry in assay [2] (IR 60 mpk, FIG. 12k) was “severe (5.0=Severe multifocal to diffuse infiltrates affecting mucosa, submucosa, outer muscle layers and serosa, affects >75% of the total colon)”; in assay [2] (PO 6 mpk, FIG. 12d), “mild (2.0=Mild multifocal infiltrates affecting mucosa, submucosa, outer muscle layers and serosa, affects 11-25% of the total colon)”; in assay [2] (PO 19 mpk, FIG. 12e), “marked (4.0=Marked multifocal to diffuse infiltrates affecting mucosa, submucosa, outer muscle layers and serosa, affects 51-75% of the total colon)”; in assay [2] (PO 60 mpk, FIG. 12f), “severe (5.0=Severe multifocal to diffuse infiltrates affecting mucosa, submucosa, outer muscle layers and serosa, affects >75% of the total colon)”; in assay [2] (PO 120 mpk, FIG. 12g) it was “mild (2.0=Mild multifocal infiltrates affecting mucosa, submucosa, outer muscle layers and serosa, affects 11-25% of the total colon)”. In addition, the colon necrosis entry is reported as “moderate (3.0=Moderate focal or multifocal, affects 26-50% of the total colon)” in assay [1] (setting [4]); “moderate (3.0=Moderate focal or multifocal, affects 26-50% of the total colon)” in assay [1] (setting [5]); “mild (2.0=Mild, focal or multifocal, affects 11-25% of the total colon)” in assay [1] (setting [6]); “mild (2.0=Mild, focal or multifocal, affects 11-25% of the total colon)” in assay [1] (setting [7]); “no” in assay [2] (IR 6 mpk, FIG. 12i); “mild (2.0=Mild, focal or multifocal, affects 11-25% of the total colon)” in assay [2] (IR 19 mpk, FIG. 12j). Also, the colon necrosis result in assay [2] (IR 60 mpk, FIG. 12k) is given as “severe (5.0=Severe affects >75% of the total colon)”; in assay [2] (PO 6 mpk, FIG. 12d), “severe (5.0=Severe affects >75% of the total colon)”; in assay [2] (PO 19 mpk, FIG. 12e), “marked (4.0=Marked focal or multifocal, affects 51-75% of the total colon)”; in assay [2] (PO 60 mpk, FIG. 12f), “severe (5.0=Severe affects >75% of the total colon)”; in assay [2] (PO 120 mpk, FIG. 12g) it was “no”.
